Data on ten compounds can be found in patent publication EP0029363A1, “Pyrazole derivatives, process for their preparation and pharmaceutical compositions containing them” (MORISHITA PHARMACEUTICAL CO. LTD., priority 1979, dated 1981).

Where two headings read alike, the source gives them in different places.

The subject of data set [1] is male SD rats. As to the kind of experiment: Pharmacological test against hypertriglyceridemia (fructose-loaded rats, serum lipid analysis). It counts as in vivo. As to conditions: Rattus norvegicus, rats given aqueous 10% fructose for 2 days, oral, three doses, total dose 300 mg/kg as free carboxylic acid (total dose 300, esters 324-329 mg/kg), blood 48 hours after start. An excerpt:
Seven groups of male SD rats, each group consisting of 6 animals, were used as test animals and one group consisting of 12 animals was used as a control. The test groups were made hypertriglyceridemic by administering aqueous 10% by weight solution of fructose for 2 days, while the animals of the control group were given tap water. The administration to the test groups of six pyrazole derivatives and of nicotinic acid was as follows:
Each pyrazole derivative and nicotinic acid was separately dissolved or dispersed in an aqueous 1% solution of carboxymethylcellulose (CMC) at a predetermined concentration, and the thus prepared solution or dispersion was orally administered in three doses, each dose having a volume of 0.5 ml/100 g body weight, a first dose just after the commencement of the test, a second dose 24 hours after the first dose, and a third dose 18 hours after the second dose. The total dosage of each compound was such that each animal received 300 mg/kg of each compound as free carboxylic acid. The rats of the control group were given the aqueous l% solution of CMC only, in three doses at the same intervals as the test groups. All the groups were fed with the same diet during the test period.
After 48 hours of the commencement of the test, a blood sample was collected from each animal by amputation of the carotid artery, and serum was separated from the blood sample and frozen to be kept until lipid analysis.
Serum triglyceride was determined by Acetylacetone Method, and the reduction percentage of lipid was calculated on the basis of the following formula: [formula] wherein the reduction percentage is the average for the test animals in each group.
The content of serum cholesterol was determined by an enzymatic method using cholesteroloxidase, and the reduction percentage of cholesterol was calculated according to the following formula: [formula]

The test system of data set [2] is male SD rats. As to the kind of experiment: Pharmacological test against hypercholesterolemia (high cholesterol diet rats). Format: in vivo. As to conditions: high cholesterol diet for 7 days, oral 200 mg/kg/day for 7 consecutive days, blood after 20 hours of fasting; for Reduction Percentage Cholesterol in beta-lipoprotein: beta-lipoprotein-cholesterol (heparin-calcium precipitation); for Reduction Percentage Cholesterol: serum cholesterol. The source says: Three groups of male SD rats each weighing about 150g, each group consisting of five rats, were used as test animals and one group consisting of 10 rats was used as control. All animals were fed a high cholesterol diet consisted of 1% cholesterol, 0.2% sodium cholate, 5% olive oil and commercial diet up to total 100% for 7 days. The test compounds of the present invention and clofibrate, as a medicine for comparison, were respectively dissolved or dispersed in an aqueous 1% solution of CMC so that the volume of the solution or dispersion administered each time to an animal was 0.5 ml/l00g body weight, and the solution or dispersion was orally administered so that the amount of administration each time of each pyrazole derivative or of clofibrate was 200 mg/kg body weight. Administration was carried out once a day for 7 consecutive days. Water was taken ad lib. After 20 hours of fasting from the last administration, a blood sample was taken from each animal by amputation of the carotid artery, and the serum separated was frozen until the analysis of cholesterol shown as follows:
The content of serum cholesterol was determined by the above-mentioned method. The beta-lipoprotein- cholesterol was determined by "heparin-calcium precipitation method". The reduction percentage of cholesterol in serum and beta-lipoprotein were calculated in the same manner as above.

The next data set is described as follows: Acute toxicity, oral. Particulars: mouse, in vivo, male ICR mice, in aqueous 1% CMC, roughly calculated from mortalities at 2.5 and 5.0 g/kg body weight. The method, then:
The acute toxicity of the present pyrazole derivatives to mammals was determined by the following method.
Male ICR mice of body weight 21 to 25 g were divided into several groups each consisting of 8 animals and were fasted for 17 to 18 hours and then orally given a pyrazole derivative or nicotinic acid dissolved or dispersed in an aqueous 1% CMC solution at a rate of 0.2 ml/10 g body weight. The administered amount of each compound was 2.5 g/kg body weight or 5.0 g/kg, and from the mortalities at both levels, LD50 was roughly calculated and compared with LD50 of nicotinic acid.

The mark [3] stands for this setting: serum cholesterol, read-out: Reduction Percentage Cholesterol.
[4] abbreviates: serum triglyceride, read-out: Reduction Percentage Triglyceride.

As for `CCCCCCCCCCCCCc1cc(C(=O)O)nn1C` [1-methyl-5-n-tridecylpyrazole-3-carboxylic acid], in the data set with male SD rats [1] (setting [3]), the inhibition in vivo at 300 mg/kg stood at 61.2%. The inhibition in vivo at 300 mg/kg in the data set on male SD rats [1] (setting [4]) came to 75.9%. In the data set on male SD rats [2], the “Reduction Percentage Cholesterol in beta-lipoprotein” value was 57.3 and the “Reduction Percentage Cholesterol” value is given as 60.1.

As to `CCCCCCCCCCCCCc1cc(C(=O)NCC(=O)OCC)n[nH]1` [3-N-ethoxycarbonylmethylcarbamoyl-5-n-tridecylpyrazole], the inhibition in vivo at 300 mg/kg in the data set on male SD rats [1] (setting [3]) stood at 34.8%. Moreover, the inhibition in vivo at 300 mg/kg in the data set on male SD rats [1] (setting [4]) came to 81.4%. Also, in the data set on male SD rats [2], the “Reduction Percentage Cholesterol in beta-lipoprotein” value worked out at 32.7 and the “Reduction Percentage Cholesterol” value came out at 48.6.

With `CCCCCCCCCCCCCc1cc(CO)n[nH]1` [3-hydroxymethyl-5-n-tridecylpyrazole], in the data set with male SD rats [1] (setting [3]), the inhibition in vivo at 300 mg/kg came out at 55.8%. For the same compound, the inhibition in vivo at 300 mg/kg in the data set with male SD rats [1] (setting [4]) was 78.2%. In the data set with male SD rats [2], the “Reduction Percentage Cholesterol in beta-lipoprotein” value came to 25.2 and the “Reduction Percentage Cholesterol” value amounted to 52.7.

As to `CCCCCCCCCCCCCCCCCc1cc(C(=O)O)n[nH]1` [5-n-heptadecylpyrazole-3-carboxylic acid], the inhibition in vivo at 300 mg/kg turned out to be 24.5% with male SD rats [1] (setting [3]) and 30.5% with male SD rats [1] (setting [4]).

For `CCCCCCCCCCCCCCCc1cc(C(=O)O)n[nH]1` [5-n-pentadecylpyrazole-3-carboxylic acid], the results for the inhibition in vivo at 300 mg/kg in the data set on male SD rats [1] (setting [3]) and with male SD rats [1] (setting [4]) were 32.1% and 62.8%, respectively.

As to `CCCCCCCCCCCCCc1cc(C(=O)O)n[nH]1` [5-n-tridecylpyrazole-3-carboxylic acid], the figures for the inhibition in vivo at 300 mg/kg in the data set with male SD rats [1] (setting [3]) and in the data set with male SD rats [1] (setting [4]) were 59.8% and 76.4%, respectively. Further, the “Reduction Percentage Cholesterol in beta-lipoprotein” value in the data set with male SD rats [2] is 54.3. In addition, the “Reduction Percentage Cholesterol” value in the data set with male SD rats [2] amounted to 45.2.

`O=C(O)c1cccnc1` [Nicotinic acid, reference compound]: the inhibition in vivo at 300 mg/kg in the data set on male SD rats [1] (setting [3]) came to 16.4%; in the data set with male SD rats [1] (setting [4]) it was 24.1%. Further, the median lethal dose (LD50) in the data set “Acute toxicity, oral” is 4500 mg/kg.

Turning to `CCCCCCCCCCCCCCCCCc1cc(C(=O)OCC)n[nH]1` [ethyl 5-n-heptadecylpyrazole-3-carboxylate], the inhibition in vivo at 300 mg/kg amounted to 32.9% in the data set with male SD rats [1] (setting [3]) and 35.2% with male SD rats [1] (setting [4]).

On to `CCCCCCCCCCCCCCCc1cc(C(=O)OCC)n[nH]1` [ethyl 5-n-pentadecylpyrazole-3-carboxylate], for which the inhibition in vivo at 300 mg/kg with male SD rats [1] (setting [3]) was 34.1%; in the data set on male SD rats [1] (setting [4]) it was 67.8%.

`CCCCCCCCCCCCCc1cc(C(=O)OCC)n[nH]1` [ethyl 5-n-tridecylpyrazole-3-carboxylate]: the values for the inhibition in vivo at 300 mg/kg in the data set with male SD rats [1] (setting [3]) and in the data set with male SD rats [1] (setting [4]) were 65.1% and 88%, respectively.

What is called LD50 is the dose expected to kill half of the subjects tested.
